pIC50: −log10 of the molar value. Where two headings read alike, the source gives them in different places.
Tests used:
rat mesangial cells [1] = assay: DCFDA assay of ROS levels upon exogenous H2O2 treatment; assay type: cell-based; details: 200 μM H2O2, rat mesangial cells
Description: Dichlorofluorescin diacetate (DCFDA) assay measured ROS levels upon treatment with 200 μM H2O2.
DCFDA assay measured ROS levels upon treatment with 200 μM H2O2.

rat mesangial cells [2] = assay: Inhibition of high glucose-induced ROS production in rat mesangial cells (DCFH-DA fluorescence); assay type: cell-based; details: for Concentration required for complete inhibition (ROS production reduced to normal levels): high glucose-induced ROS, rat mesangial cells; for IC50: 3 h, DCFH-DA 50 μM, mean of three experiments, s.d. of log IC50 in brackets; for Antioxidant activity against hyperglycemia-induced ROS generation (in words): concomitant treatment with compound plus high glucose for 3 h, DCFDA assay
Description: The inhibitory effects of the pyrrolomorpholine spiroketals on high glucose-induced oxidative stress were evaluated in rat mesangial cells (RMC). The rat mesangial cells, obtained from the American Type Culture Collection (CRL-2573), were cultured at 37° C. in Dulbecco's modified Eagle's medium (DMEM) containing 5.6 mM glucose (normal glucose), 10% fetal calf serum (FCS), nonessential amino acids, penicillin/streptomycin under a humidified atmosphere of 95% air and 5% CO2. Rat mesangial cells were seeded in 96-well plates approximately 24 hours before the start of all experiments. For more details on the antioxidant activity assays, see, e.g., Wang et al. Free Radical Biol. Med. 1999, 27, 612-616; Magalhães et al. Anal. Chim. Acta. 2008, 613, 1-19; Peng et al. Org. Lett. 2010, 12, 4932-4935; Hung et al. Am. J. Nephrol. 2009, 29, 192-202.
For each experiment, rat mesangial cells were incubated with pyrrolomorpholine spiroketal compound (0.01, 0.03, 0.1, 0.3, 1, 3, 10, 30, 100, 200 μM) or 1 mM N-acetyl cysteine (NAC, positive control) in the presence of either 5.6 mM (normal glucose, NG) or 30 mM (high glucose, HG) D-glucose for 3 h. RMC were then incubated with 50 μM dichloro-dihydro-fluorescein diacetate (DCFH-DA) for 45 min, and intracellular production of ROS was detected by 2′,7′-dichlorofluorescein (DCF) fluorescence (485 nm excitation, 530 emission) as measured by a microplate reader (SpectraMax M5/M5, Molecular Devices). Values are expressed as percentage of ROS inhibition, where fluorescence from untreated cells under normal glucose conditions was set at 0% and untreated cells under high glucose conditions was set at 100%.

rat mesangial cells [3] = details: cited from earlier work; for Antioxidant activity as reported (in words): high glucose-induced ROS, rat mesangial cells, literature
mesangial cells = details: through inhibition of NADPH oxidase, literature; cited from earlier work
[4] = Chemical reactivity towards reactive oxygen and nitrogen species; assay type: physicochemical; details: equimolar concentrations
[5] = cyclic voltametry, Aponick and coworkers; cited from earlier work
[6] = Rattus norvegicus, Mesangial cell, compound 0-200 μM, high (30 mM) glucose, N-acetyl-cysteine at 1 mM, ***p ≤ 0.001, read-out: Maximum % ROS Inhibition

OC[C@H]1O[C@@]2(Cc3ccccc3CO2)C[C@@H]1O (single isomer, unassigned) [desformylbenzene 7]
Block of the direct effect of exogenous H2O2 on ROS levels (rat mesangial cells [1]): does not block
inhibition (rat mesangial cells [2]; [6]): 100%
Concentration required for complete inhibition (ROS production reduced to normal levels) (rat mesangial cells [2]): 5 µM

O=CC[C@H](O)[C@H](O)CO [2-deoxy-D-ribose]
IC50 (rat mesangial cells [2]; Rattus norvegicus, Mesangial cell, compound 0-200 μM, high (30 mM) glucose): > 200 µM

O=Cc1ccc2n1C[C@@]1(OC2)O[C@H](CO)[C@@H](O)[C@@H]1O.c1ccccc1 [Acortatarin B, acortatarin B]
Antioxidant activity as reported (in words) (rat mesangial cells [3]): significantly attenuating high glucose-induced generation of ROS

O=Cc1ccc2n1CC1(CC(O)C(CO)O1)OC2 [L-acortatarin A]
Antioxidant activity against hyperglycemia-induced ROS generation (in words) (rat mesangial cells [2]): inactive

CC(=O)N[C@@H](CS)C(=O)O [N-acetyl-cysteine]
inhibition at 1000 µM (rat mesangial cells [2]; [6]): 100%

O=Cc1ccc2n1C[C@]1(C[C@H](O)[C@@H](CO)O1)OC2 [acortatarin A (1), acortatarin A]
Effect on high glucose-induced extracellular matrix production (mesangial cells): prevent
Reactivity to equimolar H2O2, OH radical and peroxynitrite [4]: unreactive
Block of the direct effect of exogenous H2O2 on ROS levels (rat mesangial cells [1]): does not block
IC50 (rat mesangial cells [2]; compound 0-200 μM, high (30 mM) glucose): 4.9 µM
Maximum % ROS Inhibition (rat mesangial cells [2]; compound 0-200 μM, high (30 mM) glucose, N-acetyl-cysteine at 1 mM, ***p ≤ 0.001): 100%***
Antioxidant activity against hyperglycemia-induced ROS generation (in words) (rat mesangial cells [2]): complete inhibition of ROS induction at higher concentrations
Concentration required for complete inhibition (ROS production reduced to normal levels) (rat mesangial cells [2]): 20 µM
First oxidation potential [5]: +1.74 V
Second oxidation potential [5]: 1.90 V
Antioxidant activity as reported (in words) (rat mesangial cells [3]): complete inhibition of ROS induction at higher concentrations
Antioxidant activity as reported (in words) (rat mesangial cells [3]; listed as Acortatarin A): significantly attenuating high glucose-induced generation of ROS
pIC50 (rat mesangial cells [3]; rat mesangial cell model, intracellular ROS levels, read-out: IC50 against hyperglycemia-induced oxidative stress, as recently reported): 5.31

O=Cc1cccc2c1C[C@]1(C[C@H](O)[C@@H](CO)O1)OC2 [formylbenzene 8, (2S,4S,5R)-4-hydroxy-5-(hydroxymethyl)-4,5-dihydro-3H-spiro[furan-2,3′-isochromane]-5′-carbaldehyde]
inhibition (rat mesangial cells [2]; [6]): 100%
